From patent US9624170B2, “4-(piperrazin-1-yl)-pyrrolidin-2-one compounds as monoacylglycerol lipase (MAGL) inhibitors” (TAKEDA PHARMACEUTICAL COMPANY LIMITED, priority 2013, dated 2017)

Each compound was assayed against T1, human MAGL (His-hMAGL) (Homo sapiens, UniProt Q99685) (assay: Measurement of MAGL inhibitory activity by mass spectrometry). Conditions: MAGL inhibitory rate, test compound 10 μM, His-hMAGL, substrate 2-arachidonylglycerol, RapidFire-mass spectrometry.
T1 construct: made in house; host or cells: Escherichia coli BL21(DE3)
T1 sequence (Q99685 1-303): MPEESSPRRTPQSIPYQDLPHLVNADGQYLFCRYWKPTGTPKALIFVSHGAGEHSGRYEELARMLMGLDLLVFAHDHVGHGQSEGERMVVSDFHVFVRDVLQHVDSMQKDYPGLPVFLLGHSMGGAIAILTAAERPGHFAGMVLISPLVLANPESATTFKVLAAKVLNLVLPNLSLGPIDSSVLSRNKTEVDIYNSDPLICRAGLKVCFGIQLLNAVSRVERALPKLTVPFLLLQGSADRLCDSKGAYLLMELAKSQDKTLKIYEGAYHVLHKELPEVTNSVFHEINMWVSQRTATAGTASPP
Type: biochemical
In short: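 His-tagged human MAGL was reacted with 150 μM 2-arachidonylglycerol substrate (stock, added by 5 μL) for 10 min at room temperature, then stopped with formic acid. Arachidonic acid product was quantified by RapidFire–triple-quadrupole MS in negative SRM mode, corrected by arachidonic acid-d8, and converted to percent inhibition.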

SMILES | inhibition at 10 µM
CC(C)(C)CC(=O)N1CCc2cc(N3CC(N4CCN(c5ncccn5)CC4)CC3=O)ccc21 (centres unmarked) [Example 409, 1-(1-(3,3-dimethylbutanoyl)-2,3-dihydro-1H-indol-5-yl)-4-(4-(pyrimidin-2-yl)piperazin-1-yl)pyrrolidin-2-one] | 94%
COc1ccc(CC(=O)N2CCc3cc(N4CC(N5CCN(c6ncccn6)CC5)CC4=O)ccc32)cn1 (centres unmarked) [Example 410, 1-(1-((6-methoxypyridin-3-yl)acetyl)-2,3-dihydro-1H-indol-5-yl)-4-(4-(pyrimidin-2-yl)piperazin-1-yl)pyrrolidin-2-one] | 80%
O=C1CC(N2CCN(c3ncccn3)CC2)CN1c1ccc2c(c1)CCN2C(=O)Cc1ccc(F)cc1 (centres unmarked) [Example 413, 1-(1-((4-fluorophenyl)acetyl)-2,3-dihydro-1H-indol-5-yl)-4-(4-(pyrimidin-2-yl)piperazin-1-yl)pyrrolidin-2-one] | 94%
CC(C)(C)CC(=O)N1CCc2cc(N3C[C@H](N4CCN(C(=O)c5cscn5)CC4)CC3=O)ccc21 [Example 414, (4R)-1-(1-(3,3-dimethylbutanoyl)-2,3-dihydro-1H-indol-5-yl)-4-(4-(1,3-thiazol-4-ylcarbonyl)piperazin-1-yl)pyrrolidin-2-one] | 100%
O=C(c1cscn1)N1CCN([C@@H]2CC(=O)N(c3ccc4c(c3)CCN4C(=O)Cc3ccc(Cl)cc3)C2)CC1 [Example 415, (4R)-1-(1-((4-chlorophenyl)acetyl)-2,3-dihydro-1H-indol-5-yl)-4-(4-(1,3-thiazol-4-ylcarbonyl)piperazin-1-yl)pyrrolidin-2-one] | 97%
O=C(c1cscn1)N1CCN([C@@H]2CC(=O)N(c3ccc4c(c3)CCN4C(=O)Cc3cccc(Cl)c3)C2)CC1 [Example 416, (4R)-1-(1-((3-chlorophenyl)acetyl)-2,3-dihydro-1H-indol-5-yl)-4-(4-(1,3-thiazol-4-ylcarbonyl)piperazin-1-yl)pyrrolidin-2-one] | 99%
O=C(c1cscn1)N1CCN([C@@H]2CC(=O)N(c3ccc4c(ccn4-c4ccc(C(F)(F)F)cc4)c3)C2)CC1 [Example 418, (4R)-4-(4-(1,3-Thiazol-4-ylcarbonyl)piperazin-1-yl)-1-(1-(4-(trifluoromethyl)phenyl)-1H-indol-5-yl)pyrrolidin-2-one] | 96%
O=C(c1cscn1)N1CCN([C@@H]2CC(=O)N(c3ccc4c(ccn4-c4ccc(C(F)(F)F)cn4)c3)C2)CC1 [Example 419, (4R)-4-(4-(1,3-Thiazol-4-ylcarbonyl)piperazin-1-yl)-1-(1-(5-(trifluoromethyl)pyridin-2-yl)-1H-indol-5-yl)pyrrolidin-2-one] | 96%
O=C(c1cscn1)N1CCN([C@@H]2CC(=O)N(c3ccc4c(c3)CCN4c3ccc(C(F)(F)F)cn3)C2)CC1 [Example 420, (4R)-4-(4-(1,3-Thiazol-4-ylcarbonyl)piperazin-1-yl)-1-(1-(5-(trifluoromethyl)pyridin-2-yl)-2,3-dihydro-1H-indol-5-yl)pyrrolidin-2-one] | 89%
O=C(c1cscn1)N1CCN([C@@H]2CC(=O)N(c3ccc4c(ccn4-c4cccc(C(F)(F)F)c4)c3)C2)CC1 [Example 421, (4R)-4-(4-(1,3-thiazol-4-ylcarbonyl)piperazin-1-yl)-1-(1-(3-(trifluoromethyl)phenyl)-1H-indol-5-yl)pyrrolidin-2-one] | 100%
O=C(c1cscn1)N1CCN([C@@H]2CC(=O)N(c3ccc4c(ccn4-c4cccc(F)c4)c3)C2)CC1 [Example 422, (4R)-1-(1-(3-fluorophenyl)-1H-indol-5-yl)-4-(4-(1,3-thiazol-4-ylcarbonyl)piperazin-1-yl)pyrrolidin-2-one] | 99%
O=C(c1cscn1)N1CCN([C@@H]2CC(=O)N(c3ccc4c(ccn4-c4ccc(Cl)cc4)c3)C2)CC1 [Example 423, (4R)-1-(1-(4-Chlorophenyl)-1H-indol-5-yl)-4-(4-(1,3-thiazol-4-ylcarbonyl)piperazin-1-yl)pyrrolidin-2-one] | 98%
O=C(c1cscn1)N1CCN([C@@H]2CC(=O)N(c3ccc4c(ccn4-c4cc(C(F)(F)F)ccn4)c3)C2)CC1 [Example 425, (4R)-4-(4-(1,3-Thiazol-4-ylcarbonyl)piperazin-1-yl)-1-(1-(4-(trifluoromethyl)pyridin-2-yl)-1H-indol-5-yl)pyrrolidin-2-one] | 100%

More lines, now with the values ahead:

inhibition at 10 µM | SMILES
99% | Cc1ncccc1-c1cc(F)cc(N2C[C@H](N3CCN(c4ncccn4)CC3)CC2=O)c1 [Example 426, (4R)-1-(3-Fluoro-5-(2-methylpyridin-3-yl)phenyl)-4-(4-(pyrimidin-2-yl)piperazin-1-yl)pyrrolidin-2-one]
100% | O=C(c1cscn1)N1CCN([C@@H]2CC(=O)N(c3ccc4c(ccn4-c4cccc(Cl)c4)c3)C2)CC1 [Example 428, (4R)-1-(1-(3-chlorophenyl)-1H-indol-5-yl)-4-(4-(1,3-thiazol-4-ylcarbonyl)piperazin-1-yl)pyrrolidin-2-one]
100% | O=C(c1cscn1)N1CCN([C@@H]2CC(=O)N(c3ccc4c(c3)CCN4c3ccc(F)cc3)C2)CC1 [Example 429, (4R)-1-(1-(4-fluorophenyl)-2,3-dihydro-1H-indol-5-yl)-4-(4-(1,3-thiazol-4-ylcarbonyl)piperazin-1-yl)pyrrolidin-2-one]
100% | O=C(c1cscn1)N1CCN([C@@H]2CC(=O)N(c3ccc4c(ccn4-c4ncc(C(F)(F)F)cn4)c3)C2)CC1 [Example 432, (4R)-4-(4-(1,3-Thiazol-4-ylcarbonyl)piperazin-1-yl)-1-(1-(5-(trifluoromethyl)pyrimidin-2-yl)-1H-indol-5-yl)pyrrolidin-2-one]
83% | O=C1CC(N2CCN(c3ncccn3)CC2)CN1c1ccc2c(ccn2-c2ncc(C(F)(F)F)cn2)c1 (centres unmarked) [Example 433, 4-(4-(Pyrimidin-2-yl)piperazin-1-yl)-1-(1-(5-(trifluoromethyl)pyrimidin-2-yl)-1H-indol-5-yl)pyrrolidin-2-one]
100% | CC1C(N2CCN(C(=O)c3nccs3)CC2)CC(=O)N1c1ccc2c(ccn2-c2ncc(C(F)(F)F)cn2)c1 (centres unmarked) [Example 434, 5-methyl-4-(4-(1,3-thiazol-2-ylcarbonyl)piperazin-1-yl)-1-(1-(5-(trifluoromethyl)pyrimidin-2-yl)-1H-indol-5-yl)pyrrolidin-2-one]

Same assay, conditions: MAGL inhibitory rate, test compound 10 μM, His-hMAGL, substrate 2-arachidonylglycerol, RapidFire-mass spectrometry; 10 µM

% inhibition at 10 μM | SMILES
85% | O=C1CC(N2CCN(c3ncccn3)CC2)CN1c1ccc2c(c1)CCN2c1ncc(C(F)(F)F)cn1 (stereo not drawn) [Example 430, 4-(4-(Pyrimidin-2-yl)piperazin-1-yl)-1-(1-(5-(trifluoromethyl)pyrimidin-2-yl)-2,3-dihydro-1H-indol-5-yl)pyrrolidin-2-one (optical isomer)]
